Laboratory results taken from patent US5861475A, “Compositions and methods for the inhibition of phagocytes” (Research Corporation Technologies, Inc., priority 1996, dated 1999).
Where no end group is shown, it is not given here.

What was measured:
[1] = test system: PMN; test: PMN cytosolic calcium concentration (Indo-loaded PMN); format: cell-based, human
[2] = test system: polymorphonuclear neutrophils (PMN); format: cell-based; details: 10 nM human recombinant C5a; cells concomitantly exposed to peptide and agonist; read-out: IC50 for C5a-induced chemotaxis
Description: Whole blood was obtained from a normal human volunteer population and PMN were isolated by ficoll-hypaque gradient centrifugation followed dextran sedimentation, as described by Cooper et al., (1991).
The degree of inhibition of PMN chemotaxis by natural purified inhibitor or synthetic peptides was determined as described by Cooper et al. (1991) using 100 nM formyl-methionyl-leucyl-phenylalanine (fMLP), 10 nM human recombinant C5a or 10 nM leukotriene B4 and multiwell chemotaxis chambers (Neuroprobe Inc., Bethesda, Md.) employing nitrocellulose membranes. Isoelectric focused fractions or HPLC elution fractions were diluted 1:1000 in a final concentration of the above agonists. Controls included buffer alone or C5a diluted in buffer alone.
22 μl of samples were placed in bottom wells of the chemotaxis chamber, a nitrocellulose membrane with 3 μm pores was overlaid as was a rubber gasket. […] Chemotaxis was assessed by comparing the maximal distance migrated to agonist alone or in the presence of an irrelevant peptide (μm minus migration to buffer alone) and comparing to the distance migrated to agonist plus elution fractions or synthetic peptides. The percentage of total cells migrating 10 μm increments from 0 to 120 μm was also determined by image analysis (Olympus Instruments) and treatment groups were compared to controls. […]

[3] = test system: PMN; test: PMN viability by LDH release
Description: PMN viability after exposure to NIP (seq id no:1) or control peptide for varying amounts of time was assessed by measuring LDH release using a commercially available kit (Sigma).

`COc1cc(N(CC(=O)OCOC(C)=O)CC(=O)OCOC(C)=O)c2nc(COc3cc(C)ccc3N(CC(=O)OCOC(C)=O)CC(=O)OCOC(C)=O)ccc2c1` [Quin 2 AM] was tested, and the “buffering of rises in cytosolic calcium concentrations” value ([1]; 10 μM, after 1 μM fMLP stimulation) was “significantly buffered”.

For “EGSYFFGDNA [NIP-Arg, Glu-Gly-Ser-Tyr-Phe-Phe-Gly-Asp-Asn-Ala]”, the IC50 [2] was 6 µM.

With “REGSYFFGDNA [NIP, Arg-Glu-Gly-Ser-Tyr-Phe-Phe-Gly-Asp-Asn-Ala]” the IC50 [2] was 2 µM, the “[LDH] of supernatant” value ([3]; 5 μM, 5 min exposure) was 37.2 ± 6.3 and the “[LDH] of supernatant” value ([3]; 5 μM, 15 min exposure) was 40.8 ± 3.7. For the same compound, the “[LDH] of supernatant” value ([3]; 5 μM, 30 min exposure) was 30.2 ± 4.25, the “[LDH] of supernatant” value ([3]; 5 μM, 60 min exposure) was 35 ± 5.5 and the “cellular viability as determined by LDH release” value ([3]; concentrations that inhibited chemotaxis and oxidant production) was “did not significantly alter”.

“SNRGFAYFDEG [Control peptide, Ser-Asn-Arg-Gly-Phe-Ala-Tyr-Phe-Asp-Glu-Gly, reference compound]” was tested, and the “[LDH] of supernatant” value ([3]; 5 μM, 60 min exposure) was 39.2 ± 6.5.

With Triton [reference compound] the “[LDH] of supernatant” value ([3]; 0.1%, 5 min exposure) was 252 ± 6.5.

For pertussis toxin, the “ionomycin-induced rise in cytosolic calcium” value ([1]; pertussis toxin pretreatment) was “no effect” and the “rise in cytosolic calcium concentration induced by 1 μM FMLP” value ([1]; pertussis toxin pretreatment) was “Attenuation”.
